According to patent US10028992B2, “Methods of treating muscular dystrophy” (BOARD OF REGENTS OF THE NEVADA SYSTEM OF HIGHER EDUCATION …, priority 2012, dated 2018):

Tested on: α7 integrin promoter
Assay: muscle cell-based assay: α7βgal+/− myoblasts/myotubes, LacZ reporter, β-galactosidase cleavage of FDG
Design: species or system mouse; Results in α7+/− β-galactosidase assay: scale not given here
Settings: for AC50: log of AC50, given with negative sign, unit of AC50 not given, read-out: Fit Log AC50 (converted); for Emax: read-out: Max Response [%]; for Fit Curve Class: key not given; for Results in a α7+/− β-galactosidase assay, Myotubes, 0.5 uM: compound at 0.5 uM; for Results in a α7+/− β-galactosidase assay, Myotubes, 1 uM: compound at 1 uM; for Results in a α7+/− β-galactosidase assay, Myotubes, 5 uM: compound at 5 uM; for Results in a α7+/− β-galactosidase assay, Myotubes, 10 uM: compound at 10 uM; for Results in a α7+/− β-galactosidase assay, Myotubes, 20 uM: compound at 20 uM; for Results in a α7+/− β-galactosidase assay, Myotubes, 40 uM: compound at 40 uM
Method in brief: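 Fluorescein generated from FDG by β-galactosidase reports α7 integrin promoter activity in differentiated myoblasts from α7+/− LacZ knock-in pups. Screening hits then went to dose-response, western blotting and a myostatin counterscreen.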

[1] = Table 12, fitted activity at zero concentration
[2] = Table 12 Compound data, concentration-response curve fit

SMILES: O=C1Nc2ccccc2/C1=C1\Nc2ccccc2C1=O [drawing 508]
- Results in α7+/− β-galactosidase assay (Myotubes, 0.5 uM): −0.08969
- Results in α7+/− β-galactosidase assay (Myotubes, 1 uM): −0.08698
- Results in α7+/− β-galactosidase assay (Myotubes, 5 uM): −0.493
- Results in α7+/− β-galactosidase assay (Myotubes, 10 uM): −0.5852
- Results in α7+/− β-galactosidase assay (Myotubes, 20 uM): −0.318
- Results in α7+/− β-galactosidase assay (Myotubes, 40 uM): −0.3129

SMILES: COc1ccc(Cl)cc1NC(=O)c1cc(-c2cc(C)ccc2O)[nH]n1 [drawing 581]
- Results in α7+/− β-galactosidase assay (Myoblasts, 0.5 uM): 0.01879
- Results in α7+/− β-galactosidase assay (Myoblasts, 1 uM): 0.1148
- Results in α7+/− β-galactosidase assay (Myoblasts, 5 uM): −0.07708
- Results in α7+/− β-galactosidase assay (Myoblasts, 10 uM): −0.1804
- Results in α7+/− β-galactosidase assay (Myoblasts, 20 uM): −0.08756
- Results in α7+/− β-galactosidase assay (Myoblasts, 40 uM): −0.06105

SMILES: O=C1Nc2ccccc2/C1=C1/Nc2ccccc2/C1=N\O [drawing 722]
- Result in α7+/− β-galactosidase assay (Myoblasts, 0.5 uM): 0.1752
- Result in α7+/− β-galactosidase assay (Myoblasts, 1 uM): 0.3255
- Result in α7+/− β-galactosidase assay (Myoblasts, 5 uM): −0.404
- Result in α7+/− β-galactosidase assay (Myoblasts, 10 uM): −0.681
- Result in α7+/− β-galactosidase assay (Myoblasts, 20 uM): −0.6914
- Result in α7+/− β-galactosidase assay (Myoblasts, 40 uM): −0.8176

SMILES: COc1ccccc1CNc1cc(C)ccn1 [Compound 31]
- AC50 (Mus musculus, Table 12): 2.51 µM
- Emax (Mus musculus): 62.3%
- Fit HillSlope (Table 12, curve fit): 1.9673
- Fit Zero Activity [%] [1]: −24.2621%
- Fit Curve Class (Table 12): 1.1
- Score [2]: 83

SMILES: CC(=O)Nc1ccc(NC(=O)c2cc(=O)c3cc(C)cc(C)c3o2)cc1 [drawing 388]
- Results in a α7+/− β-galactosidase assay, Myotubes, 0.5 uM (Myotubes): −0.05012
- Results in a α7+/− β-galactosidase assay, Myotubes, 1 uM (Myotubes): −0.03106
- Results in a α7+/− β-galactosidase assay, Myotubes, 5 uM (Myotubes): −0.1165
- Results in a α7+/− β-galactosidase assay, Myotubes, 10 uM (Myotubes): 0.3265
- Results in a α7+/− β-galactosidase assay, Myotubes, 20 uM (Myotubes): −0.3385
- Results in a α7+/− β-galactosidase assay, Myotubes, 40 uM (Myotubes): −0.2657

SMILES: Cc1ccccc1NC(=O)c1ccc2c(O)c(Sc3ccccc3)c(=O)[nH]c2c1 [drawing 426]
- Results in a α7+/− β-galactosidase assay, Myotubes, 0.5 uM (Myotubes): −0.06746
- Results in a α7+/− β-galactosidase assay, Myotubes, 1 uM (Myotubes): −0.07688
- Results in a α7+/− β-galactosidase assay, Myotubes, 5 uM (Myotubes): −0.09733
- Results in a α7+/− β-galactosidase assay, Myotubes, 10 uM (Myotubes): 0.01498
- Results in a α7+/− β-galactosidase assay, Myotubes, 20 uM (Myotubes): −0.07909
- Results in a α7+/− β-galactosidase assay, Myotubes, 40 uM (Myotubes): −0.1428

SMILES: CCc1c(C)sc(NC(=O)c2ccco2)c1C#N [drawing 319]
- Results in a α7+/− β-galactosidase assay, Myotubes, 0.5 uM (Myotubes): −0.09933
- Results in a α7+/− β-galactosidase assay, Myotubes, 1 uM (Myotubes): −0.00083
- Results in a α7+/− β-galactosidase assay, Myotubes, 5 uM (Myotubes): 0.02008
- Results in a α7+/− β-galactosidase assay, Myotubes, 10 uM (Myotubes): 0.1359
- Results in a α7+/− β-galactosidase assay, Myotubes, 20 uM (Myotubes): −0.1945
- Results in a α7+/− β-galactosidase assay, Myotubes, 40 uM (Myotubes): −0.05014

SMILES: CCCCNc1nnc(Cc2ccc(Cl)cc2)c(O)n1 [drawing 543]
- Results in α7+/− β-galactosidase assay (Myoblasts, 0.5 uM): 0.1426
- Results in α7+/− β-galactosidase assay (Myoblasts, 1 uM): 0.2067
- Results in α7+/− β-galactosidase assay (Myoblasts, 5 uM): −0.06804
- Results in α7+/− β-galactosidase assay (Myoblasts, 10 uM): −0.2224
- Results in α7+/− β-galactosidase assay (Myoblasts, 20 uM): −0.259
- Results in α7+/− β-galactosidase assay (Myoblasts, 40 uM): −0.2813

SMILES: CC(C)CC1NC(=O)N(CC(=O)N2c3ccccc3NC(=O)C2(C)C)C1=O (stereo not drawn) [Compound 21]
- Activity at 1.530 μM [%] ** (1.530 μM): 0%
- AC50 (Mus musculus, Table 12): 5.62 µM
- Emax (Mus musculus): 93.3%
- Fit HillSlope (Table 12, curve fit): 4.4495
- Fit Zero Activity [%] [1]: 1.1731%
- Fit Curve Class (Table 12): 1.1
- Score [2]: 84

SMILES: Cn1cc(CN2CCC(C(=O)Nc3cccc(-c4cscn4)c3)CC2)cn1 [drawing 494]
- Results in a α7+/− β-galactosidase assay, Myotubes, 0.5 uM (Myotubes): −0.07662
- Results in a α7+/− β-galactosidase assay, Myotubes, 1 uM (Myotubes): 0.03293
- Results in a α7+/− β-galactosidase assay, Myotubes, 5 uM (Myotubes): −0.2802
- Results in a α7+/− β-galactosidase assay, Myotubes, 10 uM (Myotubes): 0.1352
- Results in a α7+/− β-galactosidase assay, Myotubes, 20 uM (Myotubes): −0.1701
- Results in a α7+/− β-galactosidase assay, Myotubes, 40 uM (Myotubes): 0.00319

SMILES: O=C1Nc2ccccc2/C1=C\c1cccn1-c1ccc(OC(F)(F)F)cc1 [drawing 445]
- Results in a α7+/− β-galactosidase assay, Myotubes, 0.5 uM (Myotubes): 0.0705
- Results in a α7+/− β-galactosidase assay, Myotubes, 1 uM (Myotubes): 0.06007
- Results in a α7+/− β-galactosidase assay, Myotubes, 5 uM (Myotubes): 0.1996
- Results in a α7+/− β-galactosidase assay, Myotubes, 10 uM (Myotubes): −0.05189
- Results in a α7+/− β-galactosidase assay, Myotubes, 20 uM (Myotubes): −0.1444
- Results in a α7+/− β-galactosidase assay, Myotubes, 40 uM (Myotubes): −0.2888

SMILES: Cn1c(=O)c2c(nc(Sc3ncnn3CC(=O)NC3CCCCC3)n2C)n(C)c1=O [Compound 201]
- EC50 (Mus musculus, given as log AC50 (negative values), read-out: Fit LogAC50 (converted)): 11.2 µM
- Score (Table 12 compound data): 42
- Fit Curve Class (curve class number): 2.1
- Fit HillSlope (curve fit): 2.3531
- Fit Zero Activity [%] (curve fit, activity at zero concentration): −19.8816%

SMILES: O=C(NCCc1ccc(Cl)cc1)C1CCCO1 (stereo not drawn) [drawing 481]
- Results in a α7+/− β-galactosidase assay, Myotubes, 0.5 uM (Myotubes): 0.008299
- Results in a α7+/− β-galactosidase assay, Myotubes, 1 uM (Myotubes): −0.0666
- Results in a α7+/− β-galactosidase assay, Myotubes, 5 uM (Myotubes): 0.2373
- Results in a α7+/− β-galactosidase assay, Myotubes, 10 uM (Myotubes): −0.07246
- Results in a α7+/− β-galactosidase assay, Myotubes, 20 uM (Myotubes): −0.08414
- Results in a α7+/− β-galactosidase assay, Myotubes, 40 uM (Myotubes): −0.169
